Measurements published in patent US20130158073A1, “Methods Of Diminishing Co-Abuse Potential” (priority 2004, published 2013).
Where a name gives a salt, the structure may show the parent alone.

Experiments:
male Sprague-Dawley rats = conditions: coadministered with 10% w/v ethanol
[1] = cited from earlier work
[2] = co-administration of racemic methylphenidate and ethanol

Q: Which results are given for `COC(=O)C(c1ccccc1)C1CCCCN1` (racemic) [d,l-MPH, d,l-methylphenidate HCl]?
A: potency compared to ethanol/cocaine for discriminative stimulus effects (male Sprague-Dawley rats; i.p.): equipotent; potency compared to ethanol/cocaine for response rate effects (male Sprague-Dawley rats; i.p.): equipotent; rates of response compared with saline control test sessions, at doses producing full ethanol/cocaine-lever responding (male Sprague-Dawley rats; i.p. 15 minutes before session): do not decrease rates of response; isomer excreted in the urine [1, 2]: primarily as the d-isomer; ethylphenidate metabolite in plasma and urine ([1]; human subjects, co-administration of a single dose of methylphenidate and ethanol): ethylphenidate was also detected in plasma and urine

Q: For `CCOC(=O)C(c1ccccc1)C1CCCCN1` (centres unmarked) [Ethylphenidate], which “isomer excreted in the urine” value [1, 2] is on record?
A: Its value is “primarily as the l-isomer”.

Q: Which “potency compared to ethanol/d,l-MPH” value (male Sprague-Dawley rats; i.p.) does the source give for `COC(=O)[C@H](c1ccccc1)[C@H]1CCCCN1` [d-MPH, dexmethylphenidate HCl] here?
A: The value was “half as potent”.

Q: Which “transesterification after co-administration of racemic methylphenidate and ethanol” value [1, 2] does the source give for `COC(=O)[C@@H](c1ccccc1)[C@@H]1CCCCN1` [l-methylphenidate] here?
A: Its value is “transesterifies enantioselectively to l-ethylphenidate”.
